Drawing on US20020016351A1, “New crystals of celecoxib” (priority 2000, published 2002), this text covers bulk density and tap density for two molecules.

A short description of data set [1]: bulk density of the crystals. The format is physicochemical. To be noted: typical and characteristic density of the celecoxib crystals. The text has this:
(§1) One of the main disadvantages of the needle-like crystals of Form II mentioned in WO 00/32189 is their low bulk density. It was found, that the crystals of the invention's Form I are distinctly denser in comparison to the crystals of Form II prepared according to the methods as given in International Applications WO 95/15316 and WO 96/37476. The following densities are typical and characteristic for the crystals of Form I and II, respectively: […]

A short description of data set [2]: tap density of the crystals. To be noted: typical and characteristic density of the celecoxib crystals. The format is physicochemical.
Text: as §1

Regarding `Cc1ccc(-c2cc(C(F)(F)F)nn2-c2ccc(S(N)(=O)=O)cc2)cc1` [Form I, 4-[5-(4-methylphenyl)-3-(trifluoromethyl)-1H-pyrazol-1-yl]benzenesulfonamide], the bulk density entry in data set [1] is “≧about 0.270 g/ml”. In addition, the tap density entry in data set [2] is reported as “≧about 0.360 g/ml”.

As for `Cc1ccc(-c2cc(C(F)(F)F)nn2-c2ccc(S(N)(=O)=O)cc2)cc1` [Form II, 4-[5-(4-methylphenyl)-3-(trifluoromethyl)-1H-pyrazol-1-yl]benzenesulfonamide], the bulk density entry in data set [1] is “about 0.130 g/ml”. Further, the tap density entry in data set [2] is reported as “about 0.180 g/ml”.
